{
  "source": "patent US20030066102A1",
  "about": "“Plant gene for p-hydroxyphenylpyruvate dioxygenase” (priority 1996, published 2003)",
  "molecules": {"B1": {"name": "PDO-B: full-length Arabidopsis thaliana p-hydroxyphenylpyruvate dioxygenase produced from plasmid pE24PDO-B (protein, UniProt P93836 1-445, looked up)", "chain": "MGHQNAAVSENQNHDDGAASSPGFKLVGFSKFVRKNPKSDKFKVKRFHHIEFWCGDATNVARRFSWGLGMRFSAKSDLSTGNMVHASYLLTSGDLRFLFTAPYSPSLSAGEIKPTTTASIPSFDHGSCRSFFSSHGLGVRAVAIEVEDAESAFSISVANGAIPSSPPIVLNEAVTIAEVKLYGDVVLRYVSYKAEDTEKSEFLPGFERVEDASSFPLDYGIRRLDHAVGNVPELGPALTYVAGFTGFHQFAEFTADDVGTAESGLNSAVLASNDEMVLLPINEPVHGTKRKSQIQTYLEHNEGAGLQHLALMSEDIFRTLREMRKRSSIGGFDFMPSPPPTYYQNLKKRVGDVLSDDQIKECEELGILVDRDDQGTLLQIFTKPLGDRPTIFIEIIQRVGCMMKDEEGKAYQSGGCGGFGKGNFSELFKSIEEYEKTLEAKQLVG", "modifications": "full-length"}},
  "key": {"[1]": {"molecular_target": "T1, Plant p-Hydroxyphenylpyruvate Dioxygenase (Arabidopsis enzyme overexpressed in E. coli) (Arabidopsis thaliana, UniProt P93836)", "T1 construct": "The first 11 cycles identified […]; initiator Met (ATG start codon put in front of Ser30 by oligos CAM32/CAM33) (N, cleaved yes); made in house; host or cells: E. coli BL21(DE3) carrying pE24CP1 (pET24c(+) backbone), IPTG-induced; cell extract", "T1 sequence (P93836 30-445)": "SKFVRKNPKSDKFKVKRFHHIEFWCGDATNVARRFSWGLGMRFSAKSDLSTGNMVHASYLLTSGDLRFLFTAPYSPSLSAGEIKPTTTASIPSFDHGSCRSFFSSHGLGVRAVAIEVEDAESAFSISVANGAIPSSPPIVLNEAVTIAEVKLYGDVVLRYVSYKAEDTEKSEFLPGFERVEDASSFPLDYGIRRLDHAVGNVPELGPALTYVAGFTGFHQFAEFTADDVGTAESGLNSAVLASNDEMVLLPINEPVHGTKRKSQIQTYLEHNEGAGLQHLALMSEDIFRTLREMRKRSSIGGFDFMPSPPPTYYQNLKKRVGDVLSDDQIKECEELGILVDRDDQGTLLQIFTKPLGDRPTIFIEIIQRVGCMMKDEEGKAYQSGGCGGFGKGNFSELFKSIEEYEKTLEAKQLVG", "experiment": "14CO2 release assay from 14C-p-hydroxyphenylpyruvate with overexpressed protein", "format": "biochemical", "description": "Cell cultures with different plasmid constructs were extracted as described above and assayed by measuring the formation of ^14Co2 from [1-^14C]-p-hydroxyphenylpyruvate or ^14CO2 and ^14C-homogentisate from [U-^14C]-p-hydroxyphenylpyruvate (Lindblad, B., (1971) Clin. Chim. Acta 34:113-121; and Lindstedt, S. and Odelhog, B., (1987) Methods in Enzymology 142:143-148). The labeled substrate was prepared from [1-^14C]-L-tyrosine (55 mCi/mmol; American Radiolabeled Chemicals, Inc., St. Louis, Mo.) or [U-^14C]-L-tyrosine (498 mCi/mmol; DuPont NEN, Boston, Mass.). […]\nThe assay was performed in 14 mL culture tubes capped with serum stoppers through which a polypropylene well containing 200 μL of 1 N KOH was suspended. […] Six mL of Formula-989 scintillation fluid (Packard Insturments, Meriden, Conn.) was added to the vials and the ^14C radioactivity was determined by scintillation counting.\nThe enzymatic activity of the overexpressed protein is inhibited by two herbicides known to inhibit plant p-hydroxyphenylpyruvate dioxygenase: Sulcotrione (2-(2-chloro-4-methanesulfonylbenzoyl)-1,3-cyclohexanedione); and Isoxaflutole (5-cyclopropylisoxazol-4-yl 2-mesyl-4-trifluoromethylphenyl ketone). […] The I50 values (concentration inhibiting the enzyme 50%) were calculated based on the percent inhibition observed over several concentrations of the inhibitor."}, "[2]": {"molecular_target": "T1, Plant p-Hydroxyphenylpyruvate Dioxygenase (Arabidopsis enzyme overexpressed in E. coli)", "experiment": "continuous spectrophotometric enol borate-tautomerase assay with overexpressed protein", "format": "biochemical", "description": "The overexpressed protein was also assayed spectrophotometrically at ambient temperature using the enol borate-tautomerase assay (Lin, E. C. C. et al., (1958) J. Biol. Chem. 233:668-673). The assay buffer contained 0.4 M borate (adjusted to pH 7.2 with 0.2 M sodium borate), 4 mM ascorbate, 2.5 mM EDTA, 40 μM p-hydroxyphenylpyruvate, and 0.5 units of tautomerase (Sigma T-6004) per 10 mL buffer. The reaction mix was used when the tautomerization of the substrate was complete (when absorbance at 308 nm had stabilized). The assay was initiated by adding 40 μL of the cell extracts to 960 μL of the assay buffer, and the reaction was followed by measuring the decrease in absorbance at 308 nm.\nThe enzymatic activity of the overexpressed protein is inhibited by two herbicides known to inhibit plant p-hydroxyphenylpyruvate dioxygenase: Sulcotrione (2-(2-chloro-4-methanesulfonylbenzoyl)-1,3-cyclohexanedione); and Isoxaflutole (5-cyclopropylisoxazol-4-yl 2-mesyl-4-trifluoromethylphenyl ketone). These two compounds were tested against the overexpressed protein using both the ^14CO2 and the continuous spectrophotometric enol borate-tautomerase assays. Both compounds were added to the assay buffers in 10 μL of acetone or dimethyl sulfoxide. The I50 values (concentration inhibiting the enzyme 50%) were calculated based on the percent inhibition observed over several concentrations of the inhibitor."}, "[3]": {"experiment": "storage stability of purified enzyme constructs, activity by tautomerase coupled spectrophotometric assay", "format": "physicochemical, Arabidopsis thaliana", "details": "1 mg/mL in 20 mM bis tris-propane buffer pH 7.2, 5 mM ascorbate, 1 mM reduced glutathione, 0.1 mM ferrous ammonium sulfate, stored at 4 °C", "excerpt": "Two different constructs for Arabidopsis thaliana p-hydroxyphenyl-pyruvate dioxygenase, one containing the full-length sequence, PDO-B as described in Example 5 and produced from plasmid pE24PDO-B, and one containing the truncated sequence lacking the putative chloroplast leader sequence, PDO-A as produced from plasmid pE24CP1, were both purified to the same extent using a Pharmacia phenyl Sepharose hydrophobic interaction column followed by gel filtration chromatography on Pharmacia Sephacryl 300. The two proteins were diluted to 1 mg/mL in 20 mM bis tris-propane buffer, pH 7.2 containing 5 mM ascorbate, 1 mM reduced glutathione and 0.1mM ferrous ammonium sulfate and stored in a refrigerator at 4 ° C. for up to 10 days. Aliquots were removed at various times and assayed for activity using the tautomerase coupled spectrophotometric assay. […] In addition, the activity of the full length enzyme could be restored by incubation with iron and reducing agent, reduced glutathione or ascorbate, or by dialysis against buffer containing iron and reducing agent. In contrast, the activity of the truncated enzyme could not be restored by incubation with or dialysis against buffer containing iron and reducing agent."}},
  "data": [
    {"molecule": "CS(=O)(=O)c1cc(C(F)(F)F)ccc1C(=O)c1cnoc1C1CC1", "note": "[isoxaflutole, 5-cyclopropylisoxazol-4-yl 2-mesyl-4-trifluoromethylphenyl ketone]", "values": [
      {"measurement": "IC50", "setting": "[1]; concentration inhibiting the enzyme 50%, inhibitor added in 10 μL acetone or dimethyl sulfoxide, read-out: I50 value derived from 14CO2 assay", "value": 409, "unit": "nM"},
      {"measurement": "IC50", "setting": "[2]; concentration inhibiting the enzyme 50%, absorbance at 308 nm, read-out: I50 value derived from spectrophotometric assay", "value": 1040, "unit": "nM"}
    ]},
    {"molecule": "CS(=O)(=O)c1ccc(C(=O)C2C(=O)CCCC2=O)c(Cl)c1", "note": "[sulcotrione, 2-(2-chloro-4-methanesulfonylbenzoyl)-1,3-cyclohexanedione]", "values": [
      {"measurement": "IC50", "setting": "[1]", "value": 43, "unit": "nM"},
      {"measurement": "IC50", "setting": "[2]", "value": 44, "unit": "nM"}
    ]},
    {"molecule": "B1", "values": [
      {"measurement": "half-life for the activity", "setting": "[3]", "value": 96, "unit": "h"}
    ]}
  ]
}
